# Results published in patent US5696276A, “Process for preparing 5,8-dihydroxynaphthoquinone derivatives, novel 5,8-dihydroxynaphthoquinone derivatives and their use as anticancer agent” (Kuhnil Pharmaceutical Co., Ltd., priority 1993, dated 1997).
# Legend:
# [1] = tested on: S-180 sarcoma cells; experiment: Animal experiment using Sarcoma S-180 cells (survival of mouse); type: in vivo, male ICR mouse
# Procedure, shortened: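 Male ICR mice (20 to 25 g) received intraperitoneal transplants of 0.1 ml S-180 cell suspension (10^7 cells/ml), prepared from ascites by washing in cold physiological saline. After 24 hours, groups of 8 to 9 mice received 7 to 8 ip injections of sample in dimethylsulfoxide diluted with saline. Controls got 2% dimethylsulfoxide-saline. Survival (T/C, %) was scored against control death.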
# [2] = tested on: L1210 cells; conditions: Kor. J. Pharm. Soc., 34, 262-266 (1990); cited from earlier work
# [3] = tested on: A549 cancer cells; experiment: Cytotoxic activity against A549 cancer cells (sulforhodamin B method); type: cell-based; conditions: Homo sapiens; A549 cells, SRB method, 48 hours; read-out: ED50, cytotoxic activity against A549
# Procedure, shortened: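 Cells seeded at 8×10^4 per well, attached 24 h, then exposed 48 h to six log-spaced concentrations in triplicate. TCA-fixed, SRB-stained, OD read at 520 nm; growth inhibition computed relative to time-zero and untreated counts, IC50 from regression.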
# [4] = tested on: HL-60 cells; experiment: Cytotoxic activity against HL-60 cells; type: cell-based; conditions: Homo sapiens; HL-60 cells, 48 hours, 37° C.; read-out: ED50, cytotoxic activity against HL-60
# Description: As in the test for the cytotoxic activity against L1210 cells, the test samples were dissoved in ethanol or dimethylsulfoxide in a certain concentration. 0.1 ml of the sample solution was mixed with 0.9 ml of a fresh medium to prepare the dilutions. To each two test tubes having a screw cap were added 100, 50, 25 μl, respectively, of the sample dilutions by means of a micropipet. To each test tube for the test group and the control group (2√n: n=number of the samples) was added 5 ml of the dilutions of HL-60 cells and K-562 cells which were cultured and activated before 24 hours from the beginning of experiment and then diluted in a concentration of 1×10^5 cells/mi. All test tubes were cultured for 48 hours in a CO2 incubator at 37° C. and then the number of cells was counted using a haemacytometer.
# The ED50 value is defined as a concentration (μg/ml) of the sample which inhibits the growth of cancer cells by 50% of the control group and determined according to a method described in NIC's mannual (NIC=National Cancer Institue, U.S.A.). The growth rate Y(%) of cells in the presence of the test sample in each concentration was calculated according to the followign equation: […]
# In the above equation, T means the average cell number per ml in the test group after incubation for 48 hours in the presence of the test samples in each concentration, C means the average cell number per ml in the control group after incubation for 48 hours, and Co means the average cell number per ml in the control group at the beginning of incubation. The Y(%) value at each concentration and log10 value of each concentration were obtained and the regression curve was constructed according to the following equation from those obtained values. In this case, when all the Y(%) value obtained at each concentration is greater than 55% or lower than 45%, the experiment was repeatedly conducted.
# To construct the regression curve Y=A+BX the values A and B were obtained using the following equation. [formula]
# In the above, the value N is the number of selected points which is greater than 2 and lower than, or identical with, the number of cencentration of the test sample, Xi is log(concentration) i, and Yi is the growth ratio at (concentration)i. The value of ED50 was obtained for those obtained slope and intercept.
# [5] = tested on: S-180 sarcoma; conditions: Kor. J. Pharm. Soc., 34, 262-266 (1990); cited from earlier work
# [6] = tested on: L1210 cells; experiment: Cytotoxic activity against L1210 cells; type: cell-based; conditions: Mus musculus; L1210 cells, 48 hours, 37° C.; read-out: ED50, cytotoxic activity against L1210
# Procedure, shortened: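 Log-phase L1210 cells (5×10^4 cells/ml) in Fisher medium exposed 48 h at 37 °C in CO2 to three dilutions of sample dissolved in ethanol or DMSO. Cells counted by haemacytometer; growth relative to control; ED50 (μg/ml) from linear regression of growth % on log concentration.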
# [7] = tested on: K-562 cells; experiment: Cytotoxic activity against K-562 cells; type: cell-based; conditions: Homo sapiens, K562, 48 h, read-out: ED50, cytotoxic activity against K562
# Procedure, shortened: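 HL-60 and K-562 cells (1×10^5 cells/ml) incubated 48 h at 37° C with sample dilutions from ethanol or DMSO stocks; cells counted by haemacytometer. ED50 (μg/ml) is the concentration giving 50% growth inhibition versus control, taken from linear regression of growth rate against log concentration.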
# [8] = tested on: L1210 cancer; conditions: Chem. Pharm. Bull. 25, 2392-2395 (1977); cited from earlier work
# [9] = tested on: S-180 ascitic cancer; conditions: mouse suffering from S-180 ascitic cancer; Chem. Pharm. Bull. 25, 2392-2395 (1977); cited from earlier work
smiles,measurement,setting,value
"CC(=O)OC(CC=C(C)C)C1=CC(=O)c2c(O)ccc(O)c2C1=O (stereo not drawn) [2-(1-acetyloxy-4-methyl-3-pentenyl)-5,8-dihydroxy-1,4-naphthoquinone]",responders at 5 µmol/kg,"[1]; Mus musculus, S-180, ip, 1200 h, read-out: Number of mouse survived for 50 days",0%
same,response vs control in vivo at 5 µmol/kg,"[1]; ip, S-180 ICR mouse, intraperitoneal, daily dose 5 μmole (mg/kg/day given per compound), 7 to 8 injections, read-out: T/C",160%
same,ED50 value against L1210 cells,[2],0.01 µg/mL
same,IC50,[3],1 µg/mL
same,IC50,[4],0.06 µg/mL
same,LSI in mouse suffering from S-180 sarcoma,[5],85%
same,IC50,[6],< 0.01 µg/mL
"CC(C)=CCC(OC(=O)/C=C(C)/C=C/C=C(C)/C=C/C1=C(C)CCCC1(C)C)C1=CC(=O)c2c(O)ccc(O)c2C1=O (stereo not drawn) [2-[1-trans-retinoyloxy)-4-methyl-3-pentenyl]-5,8-dihydroxy-1,4-naphthoquinone]",responders at 15 µmol/kg,"[1]; ip, 1200 h, S-180 ICR mouse, intraperitoneal, daily dose 15 μmole (mg/kg/day given per compound), 7 to 8 injections, read-out: Number of mouse survived for 50 days (converted)",0%
same,response vs control in vivo at 15 µmol/kg,"[1]; ip, S-180 ICR mouse, intraperitoneal, daily dose 15 μmole (mg/kg/day given per compound), 7 to 8 injections, read-out: T/C",107%
same,IC50,[3],> 20 µg/mL
same,IC50,[4],4.3 µg/mL
same,IC50,[6],3.1 µg/mL
"O=c1[nH]cc(F)c(=O)[nH]1 [5-Fluorouracil, reference compound]",IC50,[3],3.7 µg/mL
same,IC50,[7],1 µg/mL
same,IC50,[4],0.2 µg/mL
same,IC50,[6],0.02 µg/mL
CC(C)=CC[C@@H](O)C1=CC(=O)c2c(O)ccc(O)c2C1=O [shikonin],effect in mouse suffering from L1210 cancer,[8],does not show a significant effect
same,increase in life span (LSI),[9],92%
